For orientation: inhibition means the share of the control response that was lost under treatment. By pIC50 is commonly meant −log10 of the IC50, conventionally taken in molar units.

Our source for the inhibition and IC50 values is ChEMBL document CHEMBL3259532, “Elucidation of different inhibition mechanism of small chemicals on PtdInsP-binding domains using in silico docking experiments” (Bioorg Med Chem Lett, 2014).

pIC50: −log10 of the molar value.

One experiment addresses T1, Cytohesin-3 (Homo sapiens) (UniProt O43739).
T1 sequence (whole entry): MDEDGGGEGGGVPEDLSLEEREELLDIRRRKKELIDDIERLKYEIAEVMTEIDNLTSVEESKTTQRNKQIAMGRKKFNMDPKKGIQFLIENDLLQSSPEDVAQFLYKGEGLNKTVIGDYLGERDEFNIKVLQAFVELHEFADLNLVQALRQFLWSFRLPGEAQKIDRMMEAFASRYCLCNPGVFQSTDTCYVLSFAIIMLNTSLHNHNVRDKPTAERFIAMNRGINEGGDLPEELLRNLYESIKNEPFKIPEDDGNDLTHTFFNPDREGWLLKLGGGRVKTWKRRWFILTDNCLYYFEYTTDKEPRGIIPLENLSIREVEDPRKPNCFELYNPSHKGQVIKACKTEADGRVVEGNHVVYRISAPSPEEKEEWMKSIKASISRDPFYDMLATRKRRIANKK
Kind of experiment: Inhibition of C-terminal 6xHis-tagged Grp1 PH domain (unknown origin) expressed in Escherichia coli BL21(DE3) RIL assessed as inhibition of interaction with PtdIns(3,4,5)P3 at 500 uM after 15 mins by SPR analysis relative to control.
Consider `CCOP(=O)(O)c1cc(C(=O)O)[nH]n1`, for which the inhibition came out at 36%.
Turning to `O=C1[C@@H]2C[C@@H]3CC[C@@]2(O3)[C@@H](P(=O)(O)O)N1Cc1ccccc1`, the inhibition came to 0%.
Same read-out and setting: under `O=C(O)c1cc(P(=O)(O)O)n[nH]1` stands 77%.
Consider `CC1(C(=O)O)CC([PH](=O)O)=NN1` (stereo unspecified), for which the inhibition was 63%.
Consider `COP(=O)(O)C1=NNC(C)(C(=O)O)C1` (stereo unspecified), for which the inhibition came to 48%.

Another experiment addresses T2, Epsin-1 (Homo sapiens) (UniProt Q9Y6I3).
T2 sequence (whole entry): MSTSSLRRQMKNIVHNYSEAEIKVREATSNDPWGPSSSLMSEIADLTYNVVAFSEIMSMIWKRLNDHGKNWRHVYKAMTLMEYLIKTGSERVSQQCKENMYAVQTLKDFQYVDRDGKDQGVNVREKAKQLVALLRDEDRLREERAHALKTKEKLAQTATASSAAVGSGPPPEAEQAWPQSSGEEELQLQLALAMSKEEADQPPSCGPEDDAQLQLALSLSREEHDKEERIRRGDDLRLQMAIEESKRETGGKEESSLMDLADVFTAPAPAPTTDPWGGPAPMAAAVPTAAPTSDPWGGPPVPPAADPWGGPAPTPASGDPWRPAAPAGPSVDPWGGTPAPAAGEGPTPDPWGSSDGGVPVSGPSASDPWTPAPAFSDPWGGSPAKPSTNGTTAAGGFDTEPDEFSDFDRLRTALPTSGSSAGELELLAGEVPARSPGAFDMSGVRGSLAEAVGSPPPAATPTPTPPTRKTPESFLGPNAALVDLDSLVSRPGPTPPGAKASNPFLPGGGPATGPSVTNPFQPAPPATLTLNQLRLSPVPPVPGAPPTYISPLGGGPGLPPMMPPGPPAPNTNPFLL
Kind of experiment: Inhibition of C-terminal 6xHis-tagged epsin-1 ENTH domain (unknown origin) expressed in Escherichia coli BL21(DE3) RIL assessed as inhibition of interaction with PtdIns(4,5)P2 at 100 uM after 15 mins by SPR analysis relative to control.
In the case of `CCOP(=O)(O)c1cc(C(=O)O)[nH]n1`, the inhibition amounted to 57%.
As for `O=C1[C@@H]2C[C@@H]3CC[C@@]2(O3)[C@@H](P(=O)(O)O)N1Cc1ccccc1`, the inhibition was determined as 13%.
The same measure, in the same setting: the result for `O=C(O)c1cc(P(=O)(O)O)n[nH]1` reads 61%; that for `CC1(C(=O)O)CC([PH](=O)O)=NN1` (stereo unspecified), 8%.
Turning to `COP(=O)(O)C1=NNC(C)(C(=O)O)C1` (stereo unspecified), the inhibition came out at 8.3%.

Another experiment addresses T3, Cytohesin-3 (Homo sapiens, UniProt O43739).
T3 sequence (O43739 whole entry): T1 sequence (whole entry)
Kind of experiment: Inhibition of recombinant C-terminal 6xHis-tagged Grp1 PH domain (unknown origin) expressed in Escherichia coli BL21(DE3) RIL assessed as inhibition of interaction with PtdIns(3,4,5)P3 after 15 mins by SPR analysis. Background: Surface plasmon resonance follows binding to a sensor surface in real time, without labels.
Take `O=C(O)c1cc(P(=O)(O)O)n[nH]1`: the pIC50 was 4.42.
